Values quoted from earlier work in patent US8349821B2, “Stanol composition and the use thereof” (Raisio Nutrition Ltd., priority 1996, dated 2013).

Key:
[1] = tested on: male subjects; details: for Absorption rate, on average: intestinal perfusion technique, ten male subjects
[2] = tested on: healthy humans; details: in vivo

SMILES | Absorption rate, on average [1] [%] | Absorbability (in words) [2] | Amount that can be absorbed [2] [%] | Dietary campesterol absorbed ([1]; in vivo)
CC[C@H](/C=C/[C@@H](C)[C@H]1CC[C@H]2[C@@H]3CC=C4C[C@@H](O)CC[C@]4(C)[C@H]3CC[C@]12C)C(C)C [stigmasterol] | 4.8 |  |  | 
CC[C@H](CC[C@@H](C)[C@H]1CC[C@H]2[C@@H]3CC[C@H]4C[C@@H](O)CC[C@]4(C)[C@H]3CC[C@]12C)C(C)C [sitostanol] |  | practically unabsorbable |  | 
CC[C@H](CC[C@@H](C)[C@H]1CC[C@H]2[C@@H]3CC=C4C[C@@H](O)CC[C@]4(C)[C@H]3CC[C@]12C)C(C)C [sitosterol] | 4.2 |  | < 5 | 
CC(C)[C@H](C)CC[C@@H](C)[C@H]1CC[C@H]2[C@@H]3CC=C4C[C@@H](O)CC[C@]4(C)[C@H]3CC[C@]12C [campesterol] | 9.6 |  |  | up to 10%
